Data reported in patent publication US9029386B2, “Pyridine derivatives useful as kinase inhibitors” (YM Biosciences Australia Pty Ltd, priority 2006, dated 2015).
pIC50: −log10 of the molar value.

What was measured:
[1] = target: T1, kinase domain of human c-kit (Homo sapiens, UniProt P10721); experiment: Alphascreen protein tyrosine kinase assay, c-KIT; assay type: biochemical
T1 construct: from codon M552 to end; made in house; host or cells: Sf9 insect cells (baculovirus)
Description: (§1) For screening purposes, compounds were diluted in 96 well plates at a concentration of 20 μM. Plates were warmed at 37° C. for 30 minutes before assay.
The kinase domain of human c-kit from codon M552 to end was cloned into the pDEST-20 expression vector (Invitrogen). The c-kit plasmid was then transformed into competent DH10Bac cells (Gibco), and the recombinant baculovirus produced prepared for transfection into Sf9 insect cells.
(§2) Baculovirus preparations from each of construct were infected into five liters of SF9 cells (Invitrogen) grown in SF-900 medium (Invitrogen) to a cell density of approximately 1−2×10^6 cells/ml. […] Cells were harvested and lysed. Tyrosine kinase domains were purified by affinity chromatography on a glutathione-agarose column (Scientifix Pty. Ltd. catalog #: GSH-200).
(§3) Kinase assays were performed in 384 well Optiplates (Packard) using an Alphascreen Protein Tyrosine Kinase kit. […] Alphascreen phosphotyrosine acceptor beads followed by streptavidin donor beads were added under subdued light. The Alphascreen plates were read on a Packard Fusion Alpha. Inhibitors were added to the assays thirty minutes prior to the addition of ATP. Inhibitors were added in aqueous DMSO, with DMSO concentrations never exceeding 1%.

[2] = target: T2, FLT-3 tyrosine kinase (Homo sapiens, UniProt P36888); experiment: Alphascreen protein tyrosine kinase assay, FLT-3; assay type: biochemical; settings: read-out: Flt3
T2 construct: purchased Upstate Cell Signalling Solutions, CA, USA 14-500
T2 sequence (P36888 27-993): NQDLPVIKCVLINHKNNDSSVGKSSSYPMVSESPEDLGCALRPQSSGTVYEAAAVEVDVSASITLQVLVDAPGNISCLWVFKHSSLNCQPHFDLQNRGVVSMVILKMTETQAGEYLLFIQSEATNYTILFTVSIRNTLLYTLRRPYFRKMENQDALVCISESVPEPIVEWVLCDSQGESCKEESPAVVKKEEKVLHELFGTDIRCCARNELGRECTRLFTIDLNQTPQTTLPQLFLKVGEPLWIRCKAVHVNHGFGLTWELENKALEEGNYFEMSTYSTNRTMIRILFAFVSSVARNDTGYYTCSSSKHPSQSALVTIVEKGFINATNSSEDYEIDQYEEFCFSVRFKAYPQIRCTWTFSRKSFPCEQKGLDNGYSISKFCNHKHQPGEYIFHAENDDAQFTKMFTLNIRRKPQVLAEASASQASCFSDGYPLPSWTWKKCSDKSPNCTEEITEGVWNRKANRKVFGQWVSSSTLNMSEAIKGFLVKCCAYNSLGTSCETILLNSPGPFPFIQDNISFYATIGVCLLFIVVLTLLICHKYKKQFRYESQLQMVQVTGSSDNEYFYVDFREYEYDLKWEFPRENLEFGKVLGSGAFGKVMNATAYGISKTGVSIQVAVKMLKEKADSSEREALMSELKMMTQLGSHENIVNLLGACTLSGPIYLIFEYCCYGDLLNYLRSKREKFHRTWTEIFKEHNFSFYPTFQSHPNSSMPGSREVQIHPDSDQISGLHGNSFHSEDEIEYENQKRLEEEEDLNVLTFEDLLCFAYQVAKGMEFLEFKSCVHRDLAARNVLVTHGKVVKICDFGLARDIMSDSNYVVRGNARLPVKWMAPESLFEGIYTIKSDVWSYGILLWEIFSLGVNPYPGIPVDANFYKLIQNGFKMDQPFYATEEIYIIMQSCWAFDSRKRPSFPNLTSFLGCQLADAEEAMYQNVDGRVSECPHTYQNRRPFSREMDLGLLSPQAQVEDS

[3] = target: T3, PDGFR β tyrosine kinase (Homo sapiens, UniProt P09619); experiment: Alphascreen protein tyrosine kinase assay, PDGFRβ; assay type: biochemical
T3 construct: purchased Upstate Cell Signalling Solutions, CA, USA 14-463

[4] = target: T4, kinase domain of human CSF1-R (Homo sapiens, UniProt P07333); experiment: Alphascreen protein tyrosine kinase assay, CSF-1R; assay type: biochemical
T4 construct: from codon I553 to Q961; made in house; host or cells: Sf9 insect cells (baculovirus)
T4 sequence (P07333 553-961): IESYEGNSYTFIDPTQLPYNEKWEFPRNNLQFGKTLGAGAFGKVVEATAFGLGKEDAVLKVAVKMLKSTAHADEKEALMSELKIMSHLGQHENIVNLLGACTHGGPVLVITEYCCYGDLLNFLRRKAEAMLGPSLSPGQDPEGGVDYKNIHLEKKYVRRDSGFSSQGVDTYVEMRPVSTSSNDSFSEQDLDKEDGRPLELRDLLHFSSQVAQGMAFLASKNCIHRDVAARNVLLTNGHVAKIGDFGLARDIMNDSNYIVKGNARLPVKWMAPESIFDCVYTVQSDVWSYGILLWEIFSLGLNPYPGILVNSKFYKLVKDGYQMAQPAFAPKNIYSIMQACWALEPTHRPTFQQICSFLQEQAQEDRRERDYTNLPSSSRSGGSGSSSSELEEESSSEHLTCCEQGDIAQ
Description: as §1
The kinase domain of human CSF1-R from codon I553 to Q961 was cloned into the pDEST-20 expression vector (Invitrogen). The CSF1-R plasmid was then transformed into competent DH10Bac cells (Gibco), and the recombinant baculovirus produced prepared for transfection into Sf9 insect cells.
as §2, §3

[5] = target: T5, KDR protein kinase (Homo sapiens, UniProt P35968); experiment: Alphascreen protein tyrosine kinase assay, KDR; assay type: biochemical
T5 construct: purchased Millipore 14-630M
Description: as §1
FLT-3 and PDGFR β tyrosine kinase enzymes were purchased from Upstate Cell Signalling Solutions, CA, USA (flt-3 catalog #: 14-500 and PDGFR β catalog #: 14-463). KDR protein kinase enzyme was purchased from Millipore (catalogue #14-630M).
Kinase assays were performed in 384 well Optiplates (Packard) using an Alphascreen Protein Tyrosine Kinase kit. […] The biotinylated peptides Biotin-[…]-NH2 for c-KIT and PDGFRβ and Biotin-[…]-NH2 for CSF1-R and FLT-3 (final concentration 0.1-3 μM) were used as substrates. Alphascreen phosphotyrosine acceptor beads followed by streptavidin donor beads were added under subdued light. The Alphascreen plates were read on a Packard Fusion Alpha. Inhibitors were added to the assays thirty minutes prior to the addition of ATP. Inhibitors were added in aqueous DMSO, with DMSO concentrations never exceeding 1%.

[6] = tested on: mNFS-60; experiment: Cellular assay (Alamar Blue), mNFS-60 with human M-CSF; assay type: cell-based; settings: human M-CSF at 20 ng/ml, 72 hr
Description: (§4) Cells for the assays were prepared by harvesting cells from culture, and then diluting them in the appropriate growth medium to between 40,000 cell/mL and 600,000 cell/mL, depending on the cell line.
(§5) The compounds to be tested were added (104, 10× final concentration) to a flat bottomed 96-well plate. The cellular suspension (80 μL per well) was added, and one hour later the growth factor was added (human M-CSF at 20 ng/ml for mNFS-60, mouse IL-3 at 5 ng/ml for Baf3-WT). The plate was then incubated for 72 hr at 37° C., 5% CO2. Alamar Blue (10^4 per well) was added and the plates returned to the incubator for a further 4-8 hours.
(§6) The plates were then read using a fluorescence plate reader at excitation 544 nm and emission 590 nm.

[7] = tested on: Baf3-WT; experiment: Cellular assay (Alamar Blue), Baf3-WT with mouse IL-3; assay type: cell-based; settings: mouse IL-3 at 5 ng/ml, 72 hr
Description: as §4, §5, §6

T3 sequence (P09619 33-1106): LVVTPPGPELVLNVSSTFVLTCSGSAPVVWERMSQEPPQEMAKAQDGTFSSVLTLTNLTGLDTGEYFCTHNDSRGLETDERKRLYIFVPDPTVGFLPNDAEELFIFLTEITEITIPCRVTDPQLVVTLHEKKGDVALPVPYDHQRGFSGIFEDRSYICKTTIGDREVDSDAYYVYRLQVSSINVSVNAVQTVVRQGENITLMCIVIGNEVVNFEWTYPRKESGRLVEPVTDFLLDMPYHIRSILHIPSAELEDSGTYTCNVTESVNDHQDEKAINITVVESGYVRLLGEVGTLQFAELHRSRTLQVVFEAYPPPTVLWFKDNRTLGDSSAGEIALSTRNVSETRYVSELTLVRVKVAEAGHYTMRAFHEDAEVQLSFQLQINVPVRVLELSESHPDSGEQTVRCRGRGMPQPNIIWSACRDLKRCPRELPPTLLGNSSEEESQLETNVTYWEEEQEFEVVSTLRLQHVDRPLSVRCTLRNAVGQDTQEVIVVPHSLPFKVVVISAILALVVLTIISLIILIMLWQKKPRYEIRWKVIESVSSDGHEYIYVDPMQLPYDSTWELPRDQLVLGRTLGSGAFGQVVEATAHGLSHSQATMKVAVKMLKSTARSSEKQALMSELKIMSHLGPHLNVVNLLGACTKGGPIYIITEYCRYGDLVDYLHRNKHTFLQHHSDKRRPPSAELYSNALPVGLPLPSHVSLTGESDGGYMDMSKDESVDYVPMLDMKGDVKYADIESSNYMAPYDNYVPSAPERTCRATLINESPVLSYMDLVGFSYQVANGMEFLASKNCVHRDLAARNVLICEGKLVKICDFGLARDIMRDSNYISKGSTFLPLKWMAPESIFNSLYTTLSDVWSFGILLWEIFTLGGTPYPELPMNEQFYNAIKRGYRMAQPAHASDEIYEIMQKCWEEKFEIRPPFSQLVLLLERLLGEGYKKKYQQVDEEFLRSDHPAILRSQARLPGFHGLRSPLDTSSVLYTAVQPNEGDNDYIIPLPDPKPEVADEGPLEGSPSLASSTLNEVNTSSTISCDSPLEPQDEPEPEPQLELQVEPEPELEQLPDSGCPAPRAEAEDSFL
T1 sequence (P10721 552-976 limits assumed): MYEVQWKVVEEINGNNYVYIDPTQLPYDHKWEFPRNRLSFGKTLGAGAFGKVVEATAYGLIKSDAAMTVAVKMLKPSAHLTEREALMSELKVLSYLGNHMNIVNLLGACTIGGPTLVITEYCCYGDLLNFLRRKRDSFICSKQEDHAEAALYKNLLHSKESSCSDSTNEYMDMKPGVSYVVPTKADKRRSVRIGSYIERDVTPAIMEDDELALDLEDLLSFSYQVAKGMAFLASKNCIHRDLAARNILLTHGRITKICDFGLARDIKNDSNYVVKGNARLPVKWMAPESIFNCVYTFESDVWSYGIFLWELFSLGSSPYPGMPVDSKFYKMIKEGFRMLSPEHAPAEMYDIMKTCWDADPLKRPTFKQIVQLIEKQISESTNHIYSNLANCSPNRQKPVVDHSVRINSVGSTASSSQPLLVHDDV
T5 sequence (P35968 20-1356): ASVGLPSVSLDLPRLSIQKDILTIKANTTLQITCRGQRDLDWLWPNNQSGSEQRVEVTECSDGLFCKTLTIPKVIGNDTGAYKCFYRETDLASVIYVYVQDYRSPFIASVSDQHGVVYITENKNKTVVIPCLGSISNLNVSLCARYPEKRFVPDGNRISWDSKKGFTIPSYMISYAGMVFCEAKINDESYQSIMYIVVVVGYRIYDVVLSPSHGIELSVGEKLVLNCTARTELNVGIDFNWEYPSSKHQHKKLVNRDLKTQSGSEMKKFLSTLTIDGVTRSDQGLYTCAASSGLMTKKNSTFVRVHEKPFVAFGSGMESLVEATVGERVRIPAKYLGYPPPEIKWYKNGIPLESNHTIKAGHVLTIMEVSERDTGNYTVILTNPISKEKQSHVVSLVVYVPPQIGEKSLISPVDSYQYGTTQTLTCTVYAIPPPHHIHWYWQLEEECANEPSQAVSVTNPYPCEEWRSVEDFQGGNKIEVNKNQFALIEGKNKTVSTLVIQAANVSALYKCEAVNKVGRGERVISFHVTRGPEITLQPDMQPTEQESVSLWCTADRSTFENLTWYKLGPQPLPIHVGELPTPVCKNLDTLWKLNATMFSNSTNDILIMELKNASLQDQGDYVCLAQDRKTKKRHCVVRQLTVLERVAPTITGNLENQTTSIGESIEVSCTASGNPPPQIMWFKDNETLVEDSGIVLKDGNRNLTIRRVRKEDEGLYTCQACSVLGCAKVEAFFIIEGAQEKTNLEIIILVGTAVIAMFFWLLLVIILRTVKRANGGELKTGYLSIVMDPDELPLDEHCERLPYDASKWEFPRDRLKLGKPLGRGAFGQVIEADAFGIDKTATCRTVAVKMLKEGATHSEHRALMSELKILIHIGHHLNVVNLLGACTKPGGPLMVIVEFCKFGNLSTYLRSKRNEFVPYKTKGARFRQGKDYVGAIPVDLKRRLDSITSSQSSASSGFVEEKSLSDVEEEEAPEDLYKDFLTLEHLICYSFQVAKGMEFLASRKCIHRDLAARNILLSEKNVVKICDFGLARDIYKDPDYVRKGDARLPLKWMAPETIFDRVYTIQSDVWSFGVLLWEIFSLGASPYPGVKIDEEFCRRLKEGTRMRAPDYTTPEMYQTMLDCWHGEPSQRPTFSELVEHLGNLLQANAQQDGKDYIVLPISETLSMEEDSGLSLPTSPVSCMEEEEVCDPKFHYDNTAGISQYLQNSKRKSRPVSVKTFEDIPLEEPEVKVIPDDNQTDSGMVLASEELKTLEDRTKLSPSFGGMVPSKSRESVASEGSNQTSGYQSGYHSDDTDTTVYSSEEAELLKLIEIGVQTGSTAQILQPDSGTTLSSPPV

Row | pIC50 [1] | pIC50 [2] | pIC50 [3] | pIC50 [4] | pIC50 [5] | pIC50 [7] | Compound | pIC50 [6]
1 | > 7.00 | < 5.00 | > 6.00 |  |  |  | COc1cc(-c2cncc(NC(C)c3cccc(NC(=O)c4cccnc4)c3)n2)ccc1O (stereo not drawn) [Compound 1] | 
2 | > 7.00 | > 5.00 | > 7.00 | > 7.00 |  |  | COc1cc(-c2cncc(N[C@@H](C)c3cccc(NC(=O)c4cccnc4)c3)n2)ccc1N [Compound 7] | 
3 | > 7.00 | > 5.00 | > 7.00 | > 7.00 | > 7.00 | < 5.00 | COc1cccc(-c2cncc(N[C@@H](C)c3cccc(NC(=O)c4cncc(C)c4)c3)n2)c1 [Compound 24] | > 6.70
4 | > 7.00 | > 5.00 | > 7.00 | > 7.00 |  |  | COc1cc(-c2cncc(N[C@@H](C)c3cccc(NC(=O)c4cncc(C)c4)c3)n2)ccc1N [Compound 29] | 
5 | > 7.00 | > 5.00 |  | > 7.00 |  |  | COc1cc(-c2cncc(N[C@@H](C)c3cccc(NC(=O)c4ccc(C)nc4)c3)n2)ccc1N [Compound 38] | 
6 | > 7.00 | > 5.00 | > 6.00 | > 7.00 |  |  | COc1cc(-c2cncc(N[C@@H](C)c3cccc(NC(=O)c4cccc(C)c4)c3)n2)ccc1O [Compound 76] | 

The next lines start with the compound.

Row | Compound | pIC50 [1] | pIC50 [2] | pIC50 [3] | pIC50 [4] | pIC50 [5] | pIC50 [7] | pIC50 [6]
7 | COc1cc(-c2cncc(N[C@@H](C)c3cccc(NC(=O)c4cncc(C)c4)c3)n2)ccc1O [Compound 28] | > 7.00 | > 5.00 | > 7.00 | > 7.00 |  |  | 
8 | Cc1cncc(C(=O)Nc2cccc([C@H](C)Nc3cncc(Cl)n3)c2)c1 [Compound 42, N-(3-{(1S)-1-[(6-chloropyrazin-2-yl)amino]ethyl}phenyl)-5-methylnicotinamide] | > 7.00 | < 5.00 | > 6.00 |  |  |  | 
9 | Cc1cncc(C(=O)Nc2cccc([C@H](C)Nc3cncc(-c4ccc(N5CCOCC5)nc4)n3)c2)c1 [Compound 79] | > 7.00 | < 5.00 | > 6.00 | > 7.00 |  |  | 
10 | Cc1cncc(C(=O)Nc2cccc([C@H](C)Nc3cncc(-c4ccc(NCCN5CCOCC5)nc4)n3)c2)c1 [Compound 80] | > 7.00 | < 5.00 | > 6.00 | > 7.00 |  |  | 
11 | Cc1cccc(C(=O)Nc2cccc([C@H](C)Nc3cncc(-c4ccc(N5CCOCC5)cc4)n3)c2)c1 [Compound 81] | > 7.00 | < 5.00 | > 6.00 | > 7.00 |  |  | 
12 | Cc1ccnc(C(=O)Nc2cccc([C@H](C)Nc3cncc(Cl)n3)c2)c1 [Compound 82] | > 6.00 | < 5.00 | > 6.00 | > 7.00 |  |  | 
13 | Cc1cc(C(=O)Nc2cccc([C@H](C)Nc3cncc(Cl)n3)c2)ccn1 [Compound 83] | > 6.00 | > 6.00 | > 6.00 |  |  |  | 
14 | Cc1cccc(C(=O)Nc2cccc([C@H](C)Nc3cncc(-c4ccc(O)nc4)n3)c2)c1 [Compound 90] | > 6.00 | > 5.00 | > 6.00 | > 7.00 |  |  | 
15 | C[C@H](Nc1cncc(Cl)n1)c1cccc(NC(=O)c2ccc(CN3CCN(C)CC3)cc2)c1 [Compound 91] | > 6.00 | < 5.00 | > 6.00 | > 7.00 |  |  | 
16 | Cc1ccc(C(=O)Nc2cccc([C@H](C)Nc3cncc(Cl)n3)c2)cc1 [Compound 93] | > 6.00 | < 5.00 | > 6.00 |  |  |  | 
17 | Cc1cccc(C(=O)Nc2cccc([C@H](C)Nc3cncc(N4CCC(O)CC4)n3)c2)c1 [Compound 95] | > 6.00 | < 5.00 | > 6.00 | > 7.00 |  |  | 
